Laboratory results from ChEMBL document CHEMBL1221210, “A Cdc7 kinase inhibitor restricts initiation of DNA replication and has antitumor activity” (Nat Chem Biol, 2008).
pIC50: −log10 of the molar value. Activity calls are given as the source filed them. The calls are words filed in the database; no cut-off is given here.

Columns and labels:
A2780 [1] = assay: Antiproliferative activity against human A2780 cells expressing p53 gene after 72 hrs by proliferative assay; format: functional, cell-based; conditions: A2780, 72 h
HeLa [2] = assay: Antiproliferative activity against p53 deficient human HeLa cells after 72 hrs; format: functional, cell-based
SF-268 [3] = assay: Induction of cell cycle arrest in p53 deficient human SF268 cells assessed as accumulation at subG1 phase at 0.1 uM after 24 hrs FACS analysis; format: functional
K562 [4] = assay: Induction of cell cycle arrest in p53 deficient human K562 cells assessed as accumulation at subG1 phase at 0.1 uM after 24hrs by FACS analysis; format: functional
HCT-15 [5] = assay: Induction of cell cycle arrest in human HCT15 cells expressing p53 gene assessed as accumulation at subG1 phase at 0.1 uM after 24hrs by FACS analysis; format: functional
K562 [6] = assay: Antiproliferative activity against p53 deficient human K562 cells after 72 hrs; format: functional, cell-based; conditions: K562, 72 h
NHDF [7] = assay: Induction of cell cycle arrest in NHDF expressing p53 gene assessed as accumulation at subG1 phase at 0.1 uM after 24hrs by FACS analysis; format: cell-based; conditions: human
[8] = Antiproliferative activity against p53 deficient human HCT116/E6 cells after 72 hrs by proliferative assay; format: functional, cell-based; conditions: HCT116-E6, 72 h
MCF7 [9] = assay: Antiproliferative activity against human MCF7 cells expressing p53 gene after 72 hrs by proliferative assay; format: functional, cell-based; conditions: MCF7, 72 h
U2OS [10] = assay: Induction of cell cycle arrest in human U2OS cells expressing p53 gene assessed as accumulation at subG1 phase at 0.1 uM after 24hrs by FACS analysis; format: functional
[11] = Antiproliferative activity against p53 deficient human A2780/E6 cells after 72 hrs by proliferative assay; format: functional, cell-based; conditions: A2780/E6, 72 h
PC-3 [12] = assay: Antiproliferative activity against human PC3 cells expressing p53 gene after 72 hrs by proliferative assay; format: functional, cell-based; conditions: PC-3, 72 h
Jurkat [13] = assay: Induction of cell cycle arrest in p53 deficient human Jurkat cells assessed as accumulation at subG1 phase at 0.1 uM after 24hrs by FACS analysis; format: functional
[14] = Induction of cell cycle arrest in p53 deficient human A2780/E6 cells as accumulation at subG1 phase at 0.1 uM after 24hrs by FACS analysis; format: functional
Jurkat [15] = assay: Antiproliferative activity against p53 deficient human Jurkat cells after 72 hrs by proliferative assay; format: functional, cell-based
MCF7 [16] = assay: Induction of cell cycle arrest in human MCF7 cells expressing p53 gene assessed as accumulation at subG1 phase at 0.1 uM after 24hrs by FACS analysis; format: functional
OVCAR-8 [17] = assay: Induction of cell cycle arrest in p53 deficient human OVCAR8 cells assessed as accumulation at subG1 phase at 0.1 uM after 24hrs by FACS analysis; format: functional
COLO 205 [18] = assay: Induction of cell cycle arrest in p53 deficient human COLO205 cells assessed as accumulation at subG1 phase at 0.1 uM after 24hrs by FACS analysis; format: functional
HCT-15 [19] = assay: Antiproliferative activity against human HCT15 cells expressing p53 gene after 72 hrs by proliferative assay; format: functional, cell-based; conditions: HCT-15, 72 h
A2780 [20] = assay: Induction of cell cycle arrest in human A2780 cells expressing p53 gene assessed as accumulation at subG1 phase at 0.1 uM after 24hrs by FACS analysis; format: functional
HCT-116 [21] = assay: Induction of cell cycle arrest in human HCT116 cells expressing p53 gene assessed as accumulation at subG1 phase at 0.1 uM after 24hrs by FACS analysis; format: functional
NHDF [22] = assay: Antiproliferative activity against NHDF expressing p53 gene after 72 hrs by proliferative assay; format: cell-based; conditions: Homo sapiens
OVCAR-8 [23] = assay: Antiproliferative activity against p53 deficient human OVCAR8 cells after 72 hrs by proliferative assay; format: functional, cell-based; conditions: OVCAR-8, 72 h
SF-268 [24] = assay: Antiproliferative activity against p53 deficient human SF268 cells after 72 hrs; format: functional, cell-based; conditions: SF-268, 72 h
SF-539 [25] = assay: Antiproliferative activity against human SF539 cells expressing p53 gene after 72 hrs by proliferative assay; format: functional, cell-based; conditions: SF-539, 72 h
U2OS [26] = assay: Antiproliferative activity against human U2OS cells expressing p53 gene after 72 hrs by proliferative assay; format: functional, cell-based
HeLa [27] = assay: Induction of cell cycle arrest in p53 deficient human HeLa cells assessed as assessed as accumulation at subG1 phase at 0.1 uM after 24hrs by FACS analysis; format: functional
PC-3 [28] = assay: Induction of cell cycle arrest in human PC3 cells expressing p53 gene assessed as accumulation at subG1 phase at 0.1 uM after 24hrs by FACS analysis; format: functional
SF-539 [29] = assay: Induction of cell cycle arrest in human SF539 cells expressing p53 gene assessed as accumulation at subG1 phase at 0.1 uM after 24hrs by FACS analysis; format: functional
COLO 205 [30] = assay: Antiproliferative activity against p53 deficient human COLO205 cells after 72 hrs; format: functional, cell-based; conditions: COLO 205, 72 h
[31] = Induction of cell cycle arrest in p53 deficient human HCT116-E6 cells assessed as accumulation at subG1 phase at 0.1 uM after 24hrs by FACS analysis; format: functional
SW480 [32] = assay: Induction of cell cycle arrest in p53 deficient human SW480 cells assessed as accumulation at subG1 phase at 0.1 uM after 24hrs by FACS analysis; format: functional
HCT-116 [33] = assay: Antiproliferative activity against human HCT116 cells expressing p53 gene after 72 hrs by proliferative assay; format: functional, cell-based; conditions: HCT-116, 72 h
SW480 [34] = assay: Antiproliferative activity against p53 deficient human SW480 cells after 72 hrs by proliferative assay; format: functional, cell-based; conditions: SW480, 72 h
A2780 [35] = assay: Induction of apoptosis in human A2780 cells assessed as appearance of Mcl1 protein level after 24 hrs; format: functional, cell-based
NHDF [36] = assay: Induction of cell cycle arrest in NHDF expressing p53 gene assessed as accumulation at subG1 phase at 100 uM after 24hrs by FACS analysis; format: cell-based; conditions: human
[37] = Induction of cell cycle arrest in p53 deficient human HCT116-E6 cells assessed as accumulation at subG1 phase at 100 uM after 24hrs by FACS analysis; format: functional
SW480 [38] = assay: Induction of cell cycle arrest in p53 deficient human SW480 cells assessed as accumulation at subG1 phase at 100 uM after 24hrs by FACS analysis; format: functional
Jurkat [39] = assay: Induction of cell cycle arrest in p53 deficient human Jurkat cells assessed as accumulation at subG1 phase at 100 uM after 24hrs by FACS analysis; format: functional
PC-3 [40] = assay: Induction of cell cycle arrest in human PC3 cells expressing p53 gene assessed as accumulation at subG1 phase at 100 uM after 24hrs by FACS analysis; format: functional
SF-539 [41] = assay: Induction of cell cycle arrest in human SF539 cells expressing p53 gene assessed as accumulation at subG1 phase at 100 uM after 24hrs by FACS analysis; format: functional
SF-268 [42] = assay: Induction of cell cycle arrest in p53 deficient human SF268 cells assessed as accumulation at subG1 phase at 100 uM after 24 hrs FACS analysis; format: functional
HCT-116 [43] = assay: Induction of cell cycle arrest in human HCT116 cells expressing p53 gene assessed as accumulation at subG1 phase at 100 uM after 24hrs by FACS analysis; format: functional
HCT-15 [44] = assay: Induction of cell cycle arrest in human HCT15 cells expressing p53 gene assessed as accumulation at subG1 phase at 100 uM after 24hrs by FACS analysis; format: functional
K562 [45] = assay: Induction of cell cycle arrest in p53 deficient human K562 cells assessed as accumulation at subG1 phase at 100 uM after 24hrs by FACS analysis; format: functional
[46] = Induction of cell cycle arrest in p53 deficient human A2780/E6 cells as accumulation at subG1 phase at 100 uM after 24hrs by FACS analysis; format: functional
COLO 205 [47] = assay: Induction of cell cycle arrest in p53 deficient human COLO205 cells assessed as accumulation at subG1 phase at 100 uM after 24hrs by FACS analysis; format: functional
HeLa [48] = assay: Induction of cell cycle arrest in p53 deficient human HeLa cells assessed as assessed as accumulation at subG1 phase at 100 uM after 24hrs by FACS analysis; format: functional
A2780 [49] = assay: Induction of cell cycle arrest in human A2780 cells expressing p53 gene assessed as accumulation at subG1 phase at 100 uM after 24hrs by FACS analysis; format: functional
U2OS [50] = assay: Induction of cell cycle arrest in human U2OS cells expressing p53 gene assessed as accumulation at subG1 phase at 100 uM after 24hrs by FACS analysis; format: functional
MCF7 [51] = assay: Induction of cell cycle arrest in human MCF7 cells expressing p53 gene assessed as accumulation at subG1 phase at 100 uM after 24hrs by FACS analysis; format: functional
OVCAR-8 [52] = assay: Induction of cell cycle arrest in p53 deficient human OVCAR8 cells assessed as accumulation at subG1 phase at 100 uM after 24hrs by FACS analysis; format: functional

## Nc1ccn([C@@H]2O[C@H](CO)[C@@H](O)C2(F)F)c(=O)n1 [GEMCITABINE]
A2780 [1]
  pIC50: 7.78
HeLa [2]
  pIC50: < 5.00
SF-268 [3]
  Activity: <3%
K562 [4]
  Activity: <3%
HCT-15 [5]
  Activity: 3%
K562 [6]
  pIC50: 6.13
NHDF [7]
  Activity: < 3%
[8]
  pIC50: 6.05
MCF7 [9]
  pIC50: 7.10
U2OS [10]
  Activity: <3%
[11]
  pIC50: 8.59
PC-3 [12]
  pIC50: 8.59
Jurkat [13]
  Activity: >20%
[14]
  Activity: <3%
Jurkat [15]
  pIC50: 7.34
MCF7 [16]
  Activity: <3%
OVCAR-8 [17]
  Activity: <3%
COLO 205 [18]
  Activity: <3%
HCT-15 [19]
  pIC50: 8.00
A2780 [20]
  Activity: <3%
HCT-116 [21]
  Activity: <3%
NHDF [22]
  pIC50: 7.66
OVCAR-8 [23]
  pIC50: 8.59
SF-268 [24]
  pIC50: 7.99
SF-539 [25]
  pIC50: 7.70
U2OS [26]
  pIC50: 7.04
HeLa [27]
  Activity: <3%
PC-3 [28]
  Activity: <3%
SF-539 [29]
  Activity: <3%
COLO 205 [30]
  pIC50: 7.29
[31]
  Activity: <3%
SW480 [32]
  Activity: <3%
HCT-116 [33]
  pIC50: 8.01
SW480 [34]
  pIC50: 7.87

## CN1CC[C@H](c2c(O)cc(O)c3c(=O)cc(-c4ccccc4Cl)oc23)[C@H](O)C1
A2780 [35]
  inhibition: Active

## O=c1[nH]cc(F)c(=O)[nH]1 [FLUOROURACIL]
NHDF [36]
  Activity: < 3%
[37]
  Activity: <3%
A2780 [1]
  pIC50: 5.14
SW480 [38]
  Activity: <3%
Jurkat [39]
  Activity: <3%
HeLa [2]
  pIC50: < 4.00
PC-3 [40]
  Activity: <3%
K562 [6]
  pIC50: < 4.00
[8]
  pIC50: 4.54
SF-539 [41]
  Activity: <3%
SF-268 [42]
  Activity: <3%
MCF7 [9]
  pIC50: 4.57
[11]
  pIC50: 4.41
HCT-116 [43]
  Activity: 10%
PC-3 [12]
  pIC50: 4.86
HCT-15 [44]
  Activity: <3%
Jurkat [15]
  pIC50: 4.06
K562 [45]
  Activity: <3%
[46]
  Activity: <3%
HCT-15 [19]
  pIC50: 4.74
COLO 205 [47]
  Activity: <3%
NHDF [22]
  pIC50: 4.83
OVCAR-8 [23]
  pIC50: 4.02
SF-268 [24]
  pIC50: 4.06
SF-539 [25]
  pIC50: 4.30
U2OS [26]
  pIC50: 4.88
HeLa [48]
  Activity: <3%
A2780 [49]
  Activity: <3%
COLO 205 [30]
  pIC50: 4.93
U2OS [50]
  Activity: <3%
MCF7 [51]
  Activity: <3%
HCT-116 [33]
  pIC50: 5.20
SW480 [34]
  pIC50: 4.58
OVCAR-8 [52]
  Activity: <3%
